Assay results published in US12447188B2, “Compositions and methods for the antiseptic treatment of biofilms on mammalian tissue” (Avadim Health IP, Inc., priority 2019, dated 2025).
Converted amounts (≈) assume the structure as drawn.

Test system: GAS
Conditions: tested with GAS

Structure (SMILES): CC[C@H](C)[C@H](NC(=O)[C@H](CCCCN)NC(=O)[C@H](CCC(=O)O)NC(=O)[C@H](CCCCN)NC(=O)[C@H](CO)NC(=O)[C@H](CCCCN)NC(=O)[C@H](CCCNC(=N)N)NC(=O)[C@H](Cc1ccccc1)NC(=O)[C@H](Cc1ccccc1)NC(=O)[C@H](CC(=O)O)NC(=O)CNC(=O)[C@H](CC(C)C)NC(=O)[C@@H](N)CC(C)C)C(=O)NCC(=O)N[C@@H](CCCCN)C(=O)N[C@@H](CCC(=O)O)C(=O)N[C@@H](Cc1ccccc1)C(=O)N[C@@H](CCCCN)C(=O)N[C@@H](CCCNC(=N)N)C(=O)N[C@H](C(=O)N[C@H](C(=O)N[C@@H](CCC(N)=O)C(=O)N[C@@H](CCCNC(=N)N)C(=O)N[C@H](C(=O)N[C@@H](CCCCN)C(=O)N[C@@H](CC(=O)O)C(=O)N[C@@H](Cc1ccccc1)C(=O)N[C@@H](CC(C)C)C(=O)N[C@@H](CCCNC(=N)N)C(=O)N[C@@H](CC(N)=O)C(=O)N[C@@H](CC(C)C)C(=O)N[C@H](C(=O)N1CCC[C@H]1C(=O)N[C@@H](CCCNC(=N)N)C(=O)N[C@H](C(=O)N[C@@H](CCC(=O)O)C(=O)N[C@@H](CO)C(=O)O)[C@@H](C)O)C(C)C)[C@@H](C)CC)C(C)C)[C@@H](C)CC [Synthetic LL-37 peptide]
- MBC: 16 µM (≈ 71.9 µg/mL)
- MIC: 16 µM (≈ 71.9 µg/mL)
